Data from patent publication US9233143B2, “Medicinal agent for preventing exacerbation of malignant tumor, comprising combination of natriuretic peptide receptor GC-A and GC-B agonists” (National Cerebral and Cardiovascular Center, priority 2011, dated 2016).
Bridge positions count the residues as written; N and C are the ends. Ends that are not written are not given here.

How the values were obtained:
[1] = target: T1, natriuretic peptide receptor GC-B (Homo sapiens, UniProt P20594); settings: literature reports; cited from earlier work
T1 sequence (P20594 23-1047): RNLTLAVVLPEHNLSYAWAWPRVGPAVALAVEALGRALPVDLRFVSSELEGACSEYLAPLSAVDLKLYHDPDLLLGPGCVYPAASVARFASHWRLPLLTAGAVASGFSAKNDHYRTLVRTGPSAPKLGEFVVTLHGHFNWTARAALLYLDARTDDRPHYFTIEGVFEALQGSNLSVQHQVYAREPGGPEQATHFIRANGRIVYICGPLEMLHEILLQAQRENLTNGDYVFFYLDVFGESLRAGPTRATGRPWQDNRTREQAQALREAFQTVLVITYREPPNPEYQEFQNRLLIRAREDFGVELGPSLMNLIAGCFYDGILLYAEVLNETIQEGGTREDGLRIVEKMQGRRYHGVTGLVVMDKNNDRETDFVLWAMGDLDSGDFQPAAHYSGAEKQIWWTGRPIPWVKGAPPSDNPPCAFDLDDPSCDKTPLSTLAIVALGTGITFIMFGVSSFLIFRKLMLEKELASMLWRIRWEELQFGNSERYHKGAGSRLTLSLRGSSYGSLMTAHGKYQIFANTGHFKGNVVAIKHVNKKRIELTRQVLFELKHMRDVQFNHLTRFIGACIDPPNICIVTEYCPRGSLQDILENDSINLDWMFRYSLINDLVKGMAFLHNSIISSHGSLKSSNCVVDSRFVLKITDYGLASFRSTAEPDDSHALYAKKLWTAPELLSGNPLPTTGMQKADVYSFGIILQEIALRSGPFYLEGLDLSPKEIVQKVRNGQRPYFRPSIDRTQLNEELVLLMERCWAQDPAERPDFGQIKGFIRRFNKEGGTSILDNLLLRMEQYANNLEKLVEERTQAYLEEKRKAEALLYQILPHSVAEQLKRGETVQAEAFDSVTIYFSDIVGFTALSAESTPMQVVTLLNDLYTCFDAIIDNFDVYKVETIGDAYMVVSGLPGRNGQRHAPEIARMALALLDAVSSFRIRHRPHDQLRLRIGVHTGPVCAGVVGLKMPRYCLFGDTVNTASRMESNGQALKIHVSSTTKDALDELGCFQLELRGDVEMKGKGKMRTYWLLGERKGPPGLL

[2] = system: A549 cells; experiment: Changes in the intracellular cGMP level in response to natriuretic peptide stimulus, A549 cells; assay type: cell-based, human; settings: 1×10^−11 M to 1×10^−6 M, 10 minutes, FIG. 1A
Method: Lung adenocarcinoma cell line, A549 cells, was obtained from ATCC (Manassas, Va.). The cells were cultured in DMEM culture medium (Invitrogen, Carlsbad, Va.) containing 10% FCS under 5% CO2 at 37° C. The amounts of the culture medium were 1.5 mL for each well of a 6-well dish, 400 μL for each well of a 24-well dish, and 150 μL for each well of a 96-well dish. In the Examples below, unless otherwise stated, the same culture medium and culture conditions were adopted.
(§1) The A549 cells were cultured in a 24-well dish at 4×10^4 cells/well, and the culture medium was replaced with DMEM culture medium free from FCS the next day. The CAFs were cultured in a 24-well dish at 1×10^4 cells/well, and the culture medium was replaced with DMEM culture medium containing 1% FCS the next day.
(§2) To these culture media, solutions of hANP, hBNP, and hCNP-22 (final concentration: ten-fold serial dilution from 1×10^−11 M to 1×10^−6 M, the same amount of physiological saline was used as a control) were separately added. After 10 minutes had passed, 400 μL of cooled 70% ethanol (containing 0.1 N hydrochloric acid) was added, and ultrasonication was performed for a short time. The treated solution was lyophilized, and the cGMP level was measured using Cyclic GMP Assay kit (made by Yamasa Corp.).

[3] = system: cancer-associated fibroblasts (CAFs); experiment: Changes in the intracellular cGMP level in response to natriuretic peptide stimulus, CAFs; assay type: cell-based, human; settings: 1×10^−11 M to 1×10^−6 M, 10 minutes, FIG. 1B
Method: For obtaining CAFs (cancer-associated fibroblasts), tissue harvested from a patient having lung cancer surgery was subjected to primary culture after the consent of the patient was obtained. The cells were then cultured in DMEM culture medium containing 10% FCS under 5% CO2 at 37° C., and the cells of the 5th and earlier passages were used.
as §1, §2

[4] = system: A549 cells; experiment: EMT induced by TGF-β1 in A549 cells (morphology, quantitative RT-PCR); assay type: cell-based, human; settings: for effect of suppressing EMT: concentration of 1 μM, summary of Example 2
Method: Using a 6-well dish, the A549 cells were cultured at 1×10^5 cells/well, and the culture medium was replaced with DMEM culture medium free from FBS the next day. After 24 hours of culture, the cells were used in the following experiment.
An ANP group (a hANP solution was added (final concentration: 1 μM)) and a control group (the same amount of physiological saline was added) were prepared, and after 2 hours from the addition (of the hANP solution or the physiological saline) to the A549 cells, TGF-β1 was added so that the final concentration would be 0.125, 0.25, 0.5, 1.0, and 2.0 ng/mL. After 24 hours had passed, the morphological change in the cells was observed under a microscope and photographed (FIG. 2).
Then, total RNA was recovered from the above prepared ANP group and control group using TRIZOL total RNA isolation reagent (made by Invitrogen), cDNA was synthesized using reverse transcriptase, and the mRNA levels of E-cadherin, N-cadherin, VEGF-A, PDGF-B, TNF-α, and IL-6 were measured by quantitative RT-PCR. The mRNA level of each intended gene was calculated as the relative ratio of the mRNA amount of the gene to that of the housekeeping gene 36B4 measured at the same time. In the Examples below, unless otherwise stated, the mRNA levels were obtained through the same calculation.
It is known that in EMT, the expression of E-cadherin decreases while the expression of N-cadherin increases. The expression ratio of the two kinds of cadherin (N-cad/E-cad) is considered to be useful as an indicator of the degree of EMT.

[5] = system: CAFs; experiment: Production of cancer exacerbation factors by CAFs under TGF-β1 stimulus (quantitative RT-PCR); assay type: cell-based, human; settings: test substance 1 μM, TGF-β1 0.125-2.0 ng/mL, 24 hours, mRNA level, FIG. 5
Method: Using a 6-well dish, the CAFs were cultured at 5×10^4 cells/well, and the culture medium was replaced with DMEM culture medium containing 1% FBS the next day. After 24 hours of culture, the cells were used in the following experiment.
A CNP group (a hCNP-22 solution was added (final concentration: 1 μM)) and a control group (the same amount of physiological saline was added) were prepared, and after 2 hours from the addition (of the hCNP-22 solution or the physiological saline) to the CAFs, TGF-β1 was added so that the final concentration would be 0.125, 0.25, 0.5, 1.0, and 2.0 ng/mL. After 24 hours had passed, total RNA was recovered using TRIZOL total RNA isolation reagent, cDNA was synthesized using reverse transcriptase, and the mRNA levels of VEGF-A, TGF-β1, TNF-α, and IL-6 were measured by quantitative RT-PCR.

[6] = system: tumor cells; settings: reports by Vesely et al.; cited from earlier work
[7] = system: A549 cells co-cultured with CAFs; experiment: Co-culture system of cancer cells and CAFs (mRNA of the A549 cells); assay type: cell-based, human; settings: each test substance 1 μM
Method: In a 6-well dish, the A549 cells were cultured at 1×10^5 cells/well. The culture medium was replaced with DMEM culture medium free from FBS the next day, and the cells were further cultured for 24 hours. In a 6-well dish having a cell culture insert (1.0 μm pore size, made by BD), the CAFs were cultured at 5×10^4 cells/well. The culture medium was replaced with DMEM culture medium containing 1% FBS the next day, and the cells were further cultured for 24 hours. To each culture medium of the two kinds of cells, test substances were separately added to prepare test substance addition groups. Control groups with no test substance were also prepared. After two hours of culture, these were subjected to co-culture. The test substance addition groups were ANP groups containing hANP at a final concentration of 1 μM, CNP groups containing hCNP-22 at a final concentration of 1 μM, and ANP+CNP groups containing both hANP and hCNP-22 each at a final concentration of 1 μM. Each of the groups were prepared by adding the test substance to each culture medium of the two kinds of cells.
On the 6-well dish of A549 cells treated as above, the above cell culture insert with the CAFs was placed to prepare a co-culture experimental model where only the culture media could pass through the cell culture insert. After 24, 48, and 72 hours of culture, total RNA of the A549 cells only was recovered, cDNA was synthesized, and the mRNA levels of E-cadherin, N-cadherin, VEGF-A, PDGF-B, and IL-6 were measured by quantitative RT-PCR (FIGS. 6 to 8). The experiment using ANP alone (ANP groups: FIG. 6), the experiment using CNP alone (CNP groups: FIG. 7), and the experiment using ANP and CNP in combination (ANP+CNP group: FIG. 8) were independently conducted, where control groups were separately set for each experiment.

[8] = system: A549 cells and CAFs; experiment: Mouse models having transplanted cancer cells and CAFs, administration started after tumor tissue was established (Example 6); assay type: in vivo; settings: hCNP-22 alone 2.5 μg/kg/min, started 2 weeks after transplantation, 4 weeks, FIG. 10
Method: In this Example and Example 6, 5-week-old male immunodeficient mice (KSN mice, Japan SLC, Inc.) were used. The osmotic pumps used were MODEL2004 (for 28-day administration) made by ALZET (Cupertino, Calif.). A mixed suspension of the A549 cells and the CAFs was prepared using DMEM free from FBS so as to contain the A549 cells at 1×10^6 cells/100 μL and the CAFs at 0.5×10^6 cells/100 μL. The mixed suspension in an amount of 100 μL per mouse was subcutaneously injected in the back of the immunodeficient mice. […] After 2 weeks of observation from the injection of the cell suspension, the mice to which the mixed suspension had been injected were randomly divided into 4 groups (control group, ANP group, CNP group, and ANP+CNP group), and an osmotic pump appropriately adjusted for each group as shown below was subcutaneously implanted to start administration. • Control group and A549 group: physiological saline was administered • ANP group: hANP was administered at 0.5 μg/kg/min • CNP group: hCNP-22 was administered at 2.5 μg/kg/min • ANP+CNP group: hANP was administered at 0.5 μg/kg/min and hCNP-22 was administered at 2.5 μg/kg/min Observation was further continued for 4 weeks after the start of administration, the tumor size at the cell injection site was measured weekly, and tumor volume was calculated in the same way as in Example 5 (FIG. 10).

[9] = A549 cells, test substance 1 μM, mRNA level, FIG. 3

Substance | GC-B agonist activity [1] | intracellular cGMP level of the A549 cells [2] | cGMP level of the CAFs [3] | effect of suppressing EMT [4] | gene expression of the growth factors (VEGF-A, TGF-β1) and the inflammatory cytokines (TNF-α, IL-6) increased by the TGF-β1 stimulus in CAFs [5] | growth-suppressing activity on tumor (cancer) cells [6] | morphological change in the cells associated with EMT induced by the TGF-β1 stimulus ([4]; A549 cells, test substance 1 μM, 24 hours after TGF-β1, FIG. 2) | gene expression of the growth factors (VEGF-A, PDGF-B) and the inflammatory cytokines (TNF-α, IL-6) increased by EMT induced by the TGF-β1 stimulus ([4]; A549 cells, test substance 1 μM, TGF-β1 0.125-2.0 ng/mL, 24 hours, mRNA level, FIG. 3) | decrease in the expression of E-cadherin induced by the TGF-β1 stimulus [4, 9] | increase in the expression of N-cadherin induced by the TGF-β1 stimulus [4, 9] | gene expression of the growth factors (VEGF-A, PDGF-B) and inflammatory cytokine (IL-6) increased in the co-culture ([7]; A549 cells co-cultured with CAFs 24, 48, 72 hours, FIGS. 6 to 8) | expression ratio of N-cadherin/E-cadherin (N-cad/E-cad), indicator of EMT, in the co-culture ([7]; A549 cells co-cultured with CAFs, FIGS. 6D, 7D, 8D) | tumor growth as compared with the control group [8]
hCNP6-22: a peptide consisting of amino acids from position 6 to position 22 of SEQ ID NO: 7 (only the ring structure) (CFGLKLDRIGSMSGLGC; disulfide 1-17 (inferred); listed as Homo sapiens) | comparable to that of hCNP-22 | – | – | – | – | – | – | – | – | – | – | – | –
hBNP: 32-amino acid BNP of human origin (SPKMVQGSGCFGRKMDRISSSSGLGCKVLRRH: SEQ ID NO: 3), GC-A agonist | – | increased the intracellular cGMP level of the A549 cells in a concentration-dependent manner | did not show such an action | significantly suppressing EMT | did not show any effect on CAFs | does not have such a growth-suppressing activity | – | – | – | – | – | – | –
hCNP-22: 22-amino acid CNP-22 of human origin (GLSKGCFGLKLDRIGSMSGLGC: SEQ ID NO: 7), GC-B agonist (GLSKGCFGLKLDRIGSMSGLGC; listed as Homo sapiens) | – | did not show such increase | increased the cGMP level of the CAFs in a concentration-dependent manner | did not show such an effect at all | significantly suppressed | – | the same as those of the control | the same as those of the control | the same as those of the control | the same as those of the control | could not suppress | did not show any effect | showed an effect of tumor growth suppression
